Test results taken from US11000555B2, “Method for preparing a limax compound and therapeutic use thereof” (GUANGXI JIUFU BIOTECHNOLOGY CO., LTD, priority 2017, dated 2021).

Tested on: morphine-dependent rats
Assay: Therapeutic effect on naloxone-induced withdrawal symptoms of morphine-dependent rats
Format: in vivo, Sprague-Dawley (SD) rats
Conditions: for Scores of induced withdrawal symptoms of rats: naloxone 5.0 mg/kg ip, 30 min
Experimental: The administration continued for 3 days for each group of rats. Rats were free to drink and eat. Naloxone (5.0 mg/kg, ip) was given 45 min after administrations on d1 and d3 during the treatment to induce withdrawal symptoms, and withdrawal reaction in 30 min and body weights one hour before and after the inducement were observed.
Times of shaking like a wet dog, stereotyped acts, erecting and jumping in 30 minutes were directly scored; symptoms such as ptosis, irritability, tooth tremor, chewing, pilus erection, abnormal posture and rapid respiration were scored every 5 minutes; symptoms such as diarrhea, lacrimation, salivation and rhinorrhea were scored every 30 minutes. The sum of all scores was the total score of the withdrawal reaction. See Appendix Table 2.

In the case of CC1(C)O[C@H]2CC[C@@]3(C)[C@@H]([C@@H](O)[C@H](O)[C@@H]3[C@@](C)(O)CC[C@@H]3OC(C)(C)[C@H]4CC[C@]3(C)O4)[C@]2(C)CC[C@H]1O [the compound, limaxol A], the “Body Weight Change (Body Weight before Inducement − Body Weight after Inducement)” value (from here on “Body Weight Change”) (d 1, high dose 0.6 g/kg ig) is reported as 14.7 ± 4.08 g, the “Scores of induced withdrawal symptoms of rats” value (“Scores” for short) (d 1, high dose 0.6 g/kg ig) is reported as 53.8 ± 16.23 and the “Body Weight Change” value (d 1, low dose 0.3 g/kg ig) is reported as 11.8 ± 3.25 g. The “Scores” value (d 1, low dose 0.3 g/kg ig) was 74.9 ± 42.03, the “Body Weight Change” value (d 3, high dose 0.6 g/kg ig) was 1.9 ± 2.13 g and the “Scores” value (d 3, high dose 0.6 g/kg ig) was 22.1 ± 10.90. The “Body Weight Change” value (d 3, low dose 0.3 g/kg ig) was 4.5 ± 2.59 g, the “Scores” value (d 3, low dose 0.3 g/kg ig) was 25.5 ± 12.26 and the “Effect on changes of the body weight of rats” value (two doses (0.3, 0.6 g/kg) ig) was “no significant effect”. For the same compound, the “Effect on withdrawal symptoms of morphine-dependent rats” value (two doses (0.3, 0.6 g/kg) ig) was “partially control the withdrawal symptoms”.
